{
  "source": "patent US9770438B2",
  "about": "“Clonidine formulation in a polyorthoester carrier” (Medtronic, Inc., priority 2008, dated 2017)",
  "key": {"[1]": {"system": "Rat Chronic Constriction Injury Model (Bennett Model) of neuropathic pain", "details": "subcutaneously 0.02 mg/kg/day; compared to unloaded polyorthoester depot (POE Control); days 8-64; FIG. 4", "text": "(§1) A 2-month chronic constriction injury (CCI) model of neuropathic pain was used to evaluate a formulation of clonidine encapsulated in a POE polymer, a POE control polymer and clonidine given subcutaneously (SC).\n(§2) The inventors evaluated the efficacy of a five month Clonidine/Polyorthoester Drug Depot in the Rat Chronic Constriction Injury Model. The animal model was the Bennett Model (Wistar rat). The purpose: to determine whether a five month polyorthoester clonidine-eluting depot can improve pain associated behavioral responses in a rat model of neuropathic pain.\n(§3) Experimental Design: Four loose chromic gut ligatures, 1 mm apart, were tied around the common sciatic nerve at mid-thigh. Each animal received treatment of test or a controlled article according to the dosing described in Table 2.\n(§4) The inventors have conducted the present study for a period of 64 days and have employed the following two tests: (1) the Hargreaves test; and (2) the von Frey test. The Hargreaves Tests of Thermal Hyperalgesia were conducted on days 7, 14, 21, 28, 35, 42, 49, 56 and 63. The von Frey monofilament test of mechanical allodynia (performed the day following thermal testing) were conducted on days 8, 15, 22, 29, 36, 43, 50, 57 and 64."}, "[2]": {"system": "Rat Chronic Constriction Injury Model (Bennett Model) of neuropathic pain", "details": "subcutaneously 0.02 mg/kg/day; compared to unloaded polyorthoester depot (POE Control); days 7-63; FIG. 3", "text": "as §1, §2, §3, §4"}},
  "data": [
    {"compound": "Clc1cccc(Cl)c1N=C1NCCN1", "note": "[clonidine, 2,6-dichloro-N-2-imidazolidinyldenebenzenamine]", "values": [
      {"measurement": "pain behavioral response (percentage of baseline) for mechanical allodynia", "setting": "[1]", "value": "reduced the behavioral response"},
      {"measurement": "pain behavioral response (percentage of baseline) for thermal hyperalgesia", "setting": "[2]", "value": "consistently reduced the behavioral response"}
    ]}
  ]
}
